Assay results taken from BigSolDB 2.1.

COc1ccc2nc(S(=O)Cc3ncc(C)c(OC)c3C)[nH]c2c1 (stereo unspecified)
solubility (mole fraction)
Conditions | in THF | in acetone | in acetonitrile | in ethanol | in ethyl acetate | in methanol | in n-butanol | in water
278.15 K | 0.00458 | 0.00146 | 0.00118 | 0.00157 | 0.000981 | 0.00206 | 0.00128 | 4.07e-05
283.15 K | 0.00644 | 0.00173 | 0.00143 | 0.00187 | 0.00112 | 0.00264 | 0.00153 | 5e-05
288.15 K | 0.00843 | 0.00215 | 0.00182 | 0.00224 | 0.00134 | 0.00348 | 0.00196 | 6.15e-05
293.15 K | 0.0113 | 0.00265 | 0.00222 | 0.00261 | 0.00156 | 0.00435 | 0.0024 | 7.64e-05
298.15 K | 0.0146 | 0.00313 | 0.00273 | 0.00347 | 0.00185 | 0.00569 | 0.00303 | 9.36e-05
303.15 K | 0.0196 | 0.00377 | 0.00354 | 0.00413 | 0.0022 | 0.00686 | 0.0037 | 0.000115
308.15 K | 0.0259 | 0.00464 | 0.00429 | 0.00509 | 0.00253 | 0.00857 | 0.00455 | 0.000138
313.15 K | 0.0327 | 0.00541 | 0.00513 | 0.00605 | 0.00293 | 0.0106 | 0.0054 | 0.000165
318.15 K | 0.0425 | 0.00637 | 0.00607 | 0.00702 | 0.00343 | 0.0129 | 0.0065 | 0.000196
323.15 K | 0.0545 | 0.00739 | 0.00711 | 0.00832 | 0.00405 | 0.0156 | 0.00779 | 0.00023
328.15 K | 0.0663 | 0.0085 | 0.00843 | 0.00982 | 0.0047 | 0.0186 | 0.00884 | 0.000263
333.15 K | 0.0789 | 0.00982 | 0.00978 | 0.0113 | 0.00523 | 0.0216 | 0.0103 | 0.000299
